Data taken from patent US20240109881A1, “Heteroaryl Compounds as Ligand Directed Degraders of IRAK4” (Bristol-Myers Squibb Company, priority 2022, published 2024).

Biological target: T1, IRAK4 (Homo sapiens, UniProt Q9NWZ3)
T1 construct: endogenous in cells; host or cells: THP-1 cells
T1 sequence (Q9NWZ3 1-460): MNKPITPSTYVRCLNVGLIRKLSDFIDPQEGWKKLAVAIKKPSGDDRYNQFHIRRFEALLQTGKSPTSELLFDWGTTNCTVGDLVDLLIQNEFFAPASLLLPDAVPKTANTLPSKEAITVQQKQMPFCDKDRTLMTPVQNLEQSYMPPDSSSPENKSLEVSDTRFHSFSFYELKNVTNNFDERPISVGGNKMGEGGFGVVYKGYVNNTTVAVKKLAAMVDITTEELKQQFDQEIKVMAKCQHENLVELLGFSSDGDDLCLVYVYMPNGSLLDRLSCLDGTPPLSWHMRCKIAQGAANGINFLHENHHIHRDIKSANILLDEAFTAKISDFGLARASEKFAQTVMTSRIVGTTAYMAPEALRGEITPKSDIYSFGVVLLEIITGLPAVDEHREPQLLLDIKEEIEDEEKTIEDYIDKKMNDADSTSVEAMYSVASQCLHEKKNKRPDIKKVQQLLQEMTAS
Test: LVL THP1 HTRF (THP1 Homogeneous Time Resolved Fluorescence)
Type: cell-based
Details: THP1 cells, 18 h incubation with compound; for DC50: read-out: LVL THP1 HTRF EC50
Method in brief: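 IRAK4 HTRF read-out (665/615 nm ratio, anti-IRAK4 d2 acceptor and K donor, 18 h dark incubation at room temperature) on lysates of THP-1 cells. Cells were treated 18 h at 37° C. with 20 nL compound in DMSO, in colorless RPMI with 10% FBS, with a duplicate CTG plate.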

Structure (SMILES) | LVL THP1 HTRF YMIN | DC50
C[C@H](C#N)Nc1cc(-n2ncc3cc(C#N)cnc32)ncc1-n1cc([C@H]2CC[C@H](CCN3CCC(c4ccc(N5CCC(=O)NC5=O)cn4)CC3)CC2)nn1 [P-345] | 87.0% | 1000 nM
C[C@H](C#N)Nc1cc(-n2ncc3cc(C#N)cnc32)ncc1-n1cc([C@H]2CC[C@H](CCN3CCC(n4cc(C5CCC(=O)NC5=O)cn4)CC3)CC2)nn1 (stereo partly shown) [P-346] | 17.5% | 92.8 nM
C[C@H](C#N)Nc1cc(-n2ncc3cc(C#N)cnc32)ncc1-n1cc([C@H]2CC[C@H](CCN3CCC(n4cc(NC5CCC(=O)NC5=O)cn4)CC3)CC2)nn1 (stereo partly shown) [P-348] | 13.1% | 94.9 nM
C[C@H](C#N)Nc1cc(-n2ncc3cc(C#N)cnc32)ncc1-n1cc([C@H]2CC[C@H](CCN3CCC(n4ccc(C5(F)CCC(=O)NC5=O)cc4=O)CC3)CC2)nn1 (stereo partly shown) [P-349] | 14.6% | 29.7 nM
C[C@H](C#N)Nc1cc(-n2ncc3cc(C#N)cnc32)ncc1-n1cc([C@H]2CC[C@H](CCN3CCC(n4ccc(C5CCC(=O)NC5=O)cc4=O)CC3)CC2)nn1 (stereo partly shown) [P-350] | 3.7% | 2.2 nM
C[C@H](C#N)Nc1cc(-n2ncc3cc(C#N)cnc32)ncc1-n1cc([C@H]2CC[C@H](CCN3CCC(n4nc(N5CCC(=O)NC5=O)c5ccccc54)CC3)CC2)nn1 [P-351] | 69.0% | –
C[C@H](C#N)Nc1cc(-n2ncc3cc(C#N)cnc32)ncc1-n1cc([C@H]2CC[C@H](CCN3CCC(O)(c4ccc(C5CCC(=O)NC5=O)cc4)CC3)CC2)nn1 (stereo partly shown) [P-352] | 2.1% | 3.8 nM
C[C@H](C#N)Nc1cc(-n2ncc3cc(C#N)cnc32)ncc1-n1cc([C@H]2CC[C@H](CCN3CCC(O)(c4ccc(N5CCC(=O)NC5=O)cc4)CC3)CC2)nn1 [P-353] | 88.5% | 1000 nM
C[C@H](C#N)Nc1cc(-n2ncc3cc(C#N)cnc32)ncc1-n1cc([C@H]2CC[C@H](CCN3CCCN(c4ccc(C5CCC(=O)NC5=O)cc4)CC3)CC2)nn1 (stereo partly shown) [P-354] | 4.0% | 13.7 nM
C[C@H](C#N)Nc1cc(-n2ncc3cc(C#N)cnc32)ncc1-n1cc([C@H]2CC[C@H](CCN3CCCN(c4ccc(N5CCC(=O)NC5=O)cc4)CC3)CC2)nn1 [P-355] | 58.0% | 327 nM
C[C@H](C#N)Nc1cc(-n2ncc3cc(C#N)cnc32)ncc1-n1cc([C@H]2CC[C@H](CCN3CCN(c4ccc(N5CCC(=O)NC5=O)cc4)[C@@H](C)C3)CC2)nn1 [P-356] | 8.6% | 40.6 nM
C[C@H](C#N)Nc1cc(-n2ncc3cc(C#N)cnc32)ncc1-n1cc([C@H]2CC[C@H](CCN3CCN(c4ccc(N5CCC(=O)NC5=O)cn4)[C@@H](C)C3)CC2)nn1 [P-357] | 26.7% | 179 nM
C[C@H](C#N)Nc1cc(-n2ncc3cc(C#N)cnc32)ncc1-n1cc([C@H]2CC[C@H](CCN3CCN(c4ccc(N5CCC(=O)NC5=O)cc4)[C@H](C)C3)CC2)nn1 [P-358] | 0.6% | 4.8 nM
C[C@H](C#N)Nc1cc(-n2ncc3cc(C#N)cnc32)ncc1-n1cc([C@H]2CC[C@H](CCN3CCN(c4ccc(N5CCC(=O)NC5=O)cn4)[C@H](C)C3)CC2)nn1 [P-359] | −1.9% | 2.5 nM
Cc1cc(N2CCC(=O)NC2=O)ccc1N1CCN(CC[C@H]2CC[C@H](c3cn(-c4cnc(-n5ncc6cc(C#N)cnc65)cc4N[C@H](C)C#N)nn3)CC2)CC1 [P-360] | 4.5% | 27.6 nM
C[C@H](C#N)Nc1cc(-n2ncc3cc(C#N)cnc32)ncc1-n1cc([C@H]2CC[C@H](CCN3CCN(c4cccc5c(N6CCC(=O)NC6=O)cncc45)CC3)CC2)nn1 [P-361] | 1.2% | 5 nM
C[C@H](C#N)Nc1cc(-n2ncc3cc(C#N)cnc32)ncc1-n1cc([C@H]2CC[C@H](CCN3CCN(c4cccc5c(N6CCC(=O)NC6=O)nn(C)c45)CC3)CC2)nn1 [P-362] | 14.9% | 238 nM
Cc1cc(N2CCN(CC[C@H]3CC[C@H](c4cn(-c5cnc(-n6ncc7cc(C#N)cnc76)cc5N[C@H](C)C#N)nn4)CC3)CC2)ccc1N1CCC(=O)NC1=O [P-363] | 5.0% | 7.6 nM
C[C@H](C#N)Nc1cc(-n2ncc3cc(C#N)cnc32)ncc1-n1cc([C@H]2CC[C@H](CCN3CCN(c4ccc(N5CCC(=O)NC5=O)c(Cl)c4)CC3)CC2)nn1 [P-364] | 3.1% | 1.8 nM
C[C@H](C#N)Nc1cc(-n2ncc3cc(C#N)cnc32)ncc1-n1cc([C@H]2CC[C@H](CCN3CCN(c4ccc(N5CCC(=O)NC5=O)c(F)c4)CC3)CC2)nn1 [P-365] | 2.0% | 2.3 nM

Structure (SMILES) | LVL THP1 HTRF YMIN | DC50
C[C@H](C#N)Nc1cc(-n2ncc3cc(C#N)cnc32)ncc1-n1cc([C@H]2CC[C@H](CCN3CCN(c4ccc(N5CCC(=O)NC5=O)cc4)CC3)CC2)nn1 [P-366] | 2.0% | 10 nM
C[C@H](C#N)Nc1cc(-n2ncc3cc(C#N)cnc32)ncc1-n1cc([C@H]2CC[C@H](CCN3CCN(c4ccc(N5CCC(=O)NC5=O)cc4F)CC3)CC2)nn1 [P-367] | 7.9% | 116 nM
C[C@H](C#N)Nc1cc(-n2ncc3cc(C#N)cnc32)ncc1-n1cc([C@H]2CC[C@H](CCN3CCN(c4ccc(NC5CCC(=O)NC5=O)cc4)CC3)CC2)nn1 (stereo partly shown) [P-368] | 2.9% | 4.4 nM
C[C@H](C#N)Nc1cc(-n2ncc3cc(C#N)cnc32)ncc1-n1cc([C@H]2CC[C@H](CCN3CCN(c4ccc5c(N6CCC(=O)NC6=O)nn(C)c5c4)CC3)CC2)nn1 [P-369] | 3.0% | 2.2 nM
C[C@H](C#N)Nc1cc(-n2ncc3cc(C#N)cnc32)ncc1-n1cc([C@H]2CC[C@H](CCN3CCN(c4ccc(N5CCC(=O)NC5=O)nc4)CC3)CC2)nn1 [P-370] | 1.2% | 30.5 nM
C[C@H](C#N)Nc1cc(-n2ncc3cc(C#N)cnc32)ncc1-n1cc([C@H]2CC[C@H](CCN3CCN(c4ccc(N5CCC(=O)NC5=O)cn4)CC3)CC2)nn1 [P-371] | 4.1% | 8.7 nM
C[C@H](C#N)Nc1cc(-n2ncc3cc(C#N)cnc32)ncc1-n1cc([C@H]2CC[C@H](CCN3CCN(c4ncc(N5CCC(=O)NC5=O)s4)CC3)CC2)nn1 [P-372] | 40.1% | 235 nM
C[C@H](C#N)Nc1cc(-n2ncc3cc(Cl)cnc32)ncc1-n1cc([C@H]2CC[C@H](CCN3CCN(c4ccc(C5CCC(=O)NC5=O)cc4)CC3)CC2)nn1 (stereo partly shown) [P-375] | 2.5% | 6.5 nM
C[C@H](C#N)Nc1nc(-n2ncc3cc(C#N)cnc32)ncc1C(=O)N[C@H]1CC[C@H](CCN2CCN(c3ccc(C4CCC(=O)NC4=O)cc3)CC2)CC1 (stereo partly shown) [P-376] | 7.2% | 30.3 nM
C[C@H](C#N)Nc1nc(-n2ncc3cc(C#N)cnc32)ncc1-n1cc([C@H]2CC[C@H](CCN3CCN(c4ccc(C5CCC(=O)NC5=O)cc4)CC3)CC2)nn1 (stereo partly shown) [P-377] | 3.4% | 8.3 nM
C[C@H](C#N)Nc1cc(Nc2ncc(C#N)cc2Cl)ncc1-n1cc([C@H]2CC[C@H](CCN3CCN(c4ccc(N5CCC(=O)NC5=O)cc4)[C@H](C)C3)CC2)nn1 [P-378] | 2.2% | 13 nM
C[C@H](C#N)Nc1cc(Nc2ncc(C#N)cc2Cl)ncc1-n1cc([C@H]2CC[C@H](CCN3CCN(c4ccc(C5CCC(=O)NC5=O)cc4)CC3)CC2)nn1 (stereo partly shown) [P-379] | 1.8% | 4 nM
C[C@H](C#N)Nc1cc(Nc2ncc(Cl)cc2Cl)ncc1-n1cc([C@H]2CC[C@H](CCN3CCN(c4ccc(C5CCC(=O)NC5=O)cc4)CC3)CC2)nn1 (stereo partly shown) [P-380] | 12.1% | 89.4 nM
C[C@H](C#N)Nc1cc(Nc2ncc(C#N)cc2F)ncc1-n1cc([C@H]2CC[C@H](CCN3CCN(c4ccc(C5CCC(=O)NC5=O)cc4)CC3)CC2)nn1 (stereo partly shown) [P-381] | 2.1% | 8.3 nM
C[C@H](C#N)Nc1cc(Nc2ncc(F)cc2F)ncc1-n1cc([C@H]2CC[C@H](CCN3CCN(c4ccc(C5CCC(=O)NC5=O)cc4)CC3)CC2)nn1 (stereo partly shown) [P-382] | 4.1% | 28 nM
C[C@H](C#N)Nc1cc(Nc2ncncc2F)ncc1-n1cc([C@H]2CC[C@H](CCN3CCN(c4ccc(C5CCC(=O)NC5=O)cc4)CC3)CC2)nn1 (stereo partly shown) [P-383] | 5.6% | 31.3 nM
C[C@H](C#N)Nc1cc(Nc2ncc(C#N)cc2Cl)ncc1-n1cc([C@H]2CC[C@H](CCN3CCN(c4ccc(N5CCC(=O)NC5=O)cc4)CC3)CC2)nn1 [P-384] | 6.5% | 45.4 nM
C[C@H](C#N)Nc1cc(Nc2ncc(C#N)cc2F)ncc1-n1cc([C@H]2CC[C@H](CCN3CCN(c4ccc(N5CCC(=O)NC5=O)cc4)[C@H](C)C3)CC2)nn1 [P-385] | −1.9% | 8.7 nM
C[C@H](C#N)Nc1cc(Nc2ncc(C#N)cc2F)ncc1-n1cc([C@H]2CC[C@H](CCN3CCN(c4ccc(N5CCC(=O)NC5=O)cc4)CC3)CC2)nn1 [P-386] | 6.7% | 24.2 nM
C[C@H](C#N)Nc1cc(Nc2ncc(C#N)cn2)ncc1-n1cc([C@H]2CC[C@H](CCN3CCN(c4ccc(N5CCC(=O)NC5=O)cc4)[C@H](C)C3)CC2)nn1 [P-387] | 9.8% | 14.1 nM
